Measurements from paper PMC7508628, “Targeting the Respiratory Syncytial Virus N^0-P Complex with Constrained α-Helical Peptides in Cells and Mice” (Antimicrobial Agents and Chemotherapy, 2020).
Where a SMILES comes first, the peptide text is derived from it. Bridges are numbered along the chain shown (N, C = ends). [ ]: non-standard residue; d: D form. R8 = C=CCCCCCC[C@@](C)(N)C(=O)O; R5 = C=CCCC[C@@](C)(N)C(=O)O; S5 = C=CCCC[C@](C)(N)C(=O)O

How the values were obtained:
circular dichroism = settings: 10 mM phosphate; pH 7.5; 25 °C; 50 uM
[1] = molecular target: monomeric N protein (N^mono), recombinant N^K170A/R185A (Human respiratory syncytial virus A, UniProt P03418, K170A/R185A); assay: Fluorescence polarization competition assay: displacement of FAM–P(1–40) from monomeric N; format: binding; settings: FP competition with FAM–P(1–40) probe
monomeric N protein (N^mono), recombinant N^K170A/R185A, sequence (P03418 whole entry K170A/R185A, looked up): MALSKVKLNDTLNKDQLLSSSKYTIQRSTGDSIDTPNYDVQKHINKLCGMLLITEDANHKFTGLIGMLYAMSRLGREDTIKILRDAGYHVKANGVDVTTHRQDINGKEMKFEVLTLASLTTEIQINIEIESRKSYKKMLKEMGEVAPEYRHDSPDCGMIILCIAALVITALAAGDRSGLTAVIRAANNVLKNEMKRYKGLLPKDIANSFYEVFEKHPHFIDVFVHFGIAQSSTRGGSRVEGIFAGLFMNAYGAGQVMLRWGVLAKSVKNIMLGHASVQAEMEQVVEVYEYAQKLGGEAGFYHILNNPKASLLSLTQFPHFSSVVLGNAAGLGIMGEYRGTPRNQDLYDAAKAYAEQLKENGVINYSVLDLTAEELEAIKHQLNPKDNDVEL

[2] = Circular dichroism spectroscopy, α-helical content; format: physicochemical; settings: CD, 10 mM phosphate buffer pH 7.5, 50 μM peptide, 25°C, calculated from ellipticity at 222 nm; average of three measurements
In short: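 Peptides at 50 μM in 10 mM phosphate, pH 7.5, scanned 180–260 nm at 25 °C in a 0.5-mm cell, three scans averaged and buffer-subtracted. Percent helicity derived from per-residue molar ellipticity at 222 nm using a length-corrected 40,000 maximum.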

rHRSV-mCherry = settings: read-out: EC50 (half-maximal response inhibitory concentration), inhibition of RSV infection; HEp-2 cells, MOI 0.2, peptides added after 2 h infection, mCherry fluorescence at 48 h postinfection; duplicates
BALB/c mice = assay: In vivo toxicity assessment in uninfected BALB/c mice
HEp-2 cells = assay: HEp-2 cell viability (CellTiter-Glo luminescent cell viability assay); settings: peptide alone at 50 μM; duplicates
Description: (B) HEp-2 cell viability upon treatment with peptides alone at peptide concentrations of 50, 25, and 12.5 μM. Error bars are standard deviations from duplicates. Data are representative of those from two independent experiments.
Cytotoxicity assays were done with the CellTiter-Glo luminescent cell viability assay (Promega). Each experiment was performed in duplicate and repeated at least twice.

rHRSV-Luc = assay: Mouse RSV infection model (rHRSV-Luc, bioluminescence, lung histology)
BSRT7/5 cells = assay: Viability of BSRT7/5 cells transfected with the minigenome; settings: 25 μM peptide
Text: BSRT7/5 cells were transfected with plasmids pP, pN, pM2-1, pL, and pM/Luc, together with pRSV-β-Gal for transfection standardization. […] Error bars are standard deviations from duplicates. Data are representative of those from two independent experiments.
Briefly, the dicistronic RSV minigenome pM/Luc was cotransfected into BSRT7/5 cells expressing T7 RNA polymerase, together with plasmids pN, pP, pL, and pM2-1, resulting in the replication and transcription of the minigenome.

RSV = settings: monthly injection during the peak season, at-risk infants; cited from earlier work
Text: Respiratory syncytial virus (RSV) is very contagious and represents the main cause of severe acute respiratory tract illness in young children worldwide. […] A recent study performed by Pneumonia Etiology Research for Child Health ...

[3] = 2 dpi, one i.n. treatment 50 μl at 215 μM, 1 × 10^5 PFU rHRSV-Luc, n = 5
[4] = 4 dpi, i.n. treatment at day 0 and 2 dpi, n = 5, Mann-Whitney test

| Compound | % helicity [2] [%] | EC50 (rHRSV-mCherry) [µM] | Toxicity for uninfected HEp-2 cells (cell viability) (HEp-2 cells) | other results |
| --- | --- | --- | --- | --- |
| CC(=O)N[C@@H](CCC(=O)O)C(=O)N[C@@H](CC(=O)O)C(=O)N[C@@H](C)C(=O)N[C@@H](CC(N)=O)C(=O)N[C@@H](CC(N)=O)C(=O)N[C@@H](CCCCN)C(=O)N[C@@H](C)C(=O)N[C@H](C(=O)N[C@@H](CCCCN)C(=O)N[C@@]1(C)CCCC=CCCC[C@@](C)(C(=O)N[C@@H](CCCCN)C(=O)NCC(=O)N[C@@H](CCCCN)C(=O)N[C@@H](Cc2ccccc2)C(=O)N[C@@H](C)C(=O)N[C@@H](CO)C(N)=O)NC(=O)[C@H](CO)NC(=O)[C@H](CCC(=O)O)NC(=O)[C@H](CC(C)C)NC1=O)[C@@H](C)O [2d] (Ac-EDANNKATK[S5]LES[S5]KGKFAS-NH2; staple 10-14) | 10.1 |  |  | helicity (circular dichroism): 10.1%; Competitive binding to N^mono (in words) [1]: no competition could be observed |
| CC[C@H](C)[C@H](NC(=O)[C@]1(C)CCCC=CCCCCCC[C@@](C)(NC(=O)[C@H](CC(N)=O)NC(=O)[C@H](CC(N)=O)NC(=O)[C@H](C)NC(=O)[C@]2(C)CCCC=CCCC[C@@](C)(NC(=O)[C@H](Cc3ccccc3)NC(=O)[C@H](CCC(=O)O)NC(C)=O)C(=O)NCC(=O)N[C@@H](CCC(=O)O)C(=O)N2)C(=O)N[C@@H](C)C(=O)N[C@@H]([C@@H](C)O)C(=O)N[C@@H](CCCCN)C(=O)N[C@@H](Cc2ccccc2)C(=O)N[C@@H](CC(C)C)C(=O)N[C@@H](CCC(=O)O)C(=O)N1)C(=O)N[C@@H](CCCCN)C(=O)NCC(=O)N[C@@H](CCCCN)C(=O)N[C@@H](Cc1ccccc1)C(=O)N[C@@H](C)C(=O)N[C@@H](CO)C(N)=O [4a3b] (Ac-EF[R5]GE[S5]ANN[R8]ATKFLE[S5]IKGKFAS-NH2; staple 3-6, 10-17) | 73.2 | 14.6 ± 13.9 |  | Competitive binding to N^mono (in words) [1]: inactive |
| CC[C@H](C)[C@H](NC(=O)[C@]1(C)CCCC=CCCCCCC[C@@](C)(NC(=O)[C@H](CCC(=O)O)NC(=O)[C@H](CC(N)=O)NC(=O)[C@H](C)NC(=O)[C@]2(C)CCCC=CCCC[C@@](C)(NC(=O)[C@H](Cc3ccccc3)NC(=O)[C@H](CCC(=O)O)NC(C)=O)C(=O)NCC(=O)N[C@@H](CCC(=O)O)C(=O)N2)C(=O)N[C@@H](C)C(=O)N[C@@H]([C@@H](C)O)C(=O)N[C@@H](CCCCN)C(=O)N[C@@H](Cc2ccccc2)C(=O)N[C@@H](CC(C)C)C(=O)N[C@@H](CCC(=O)O)C(=O)N1)C(=O)N[C@@H](CCCCN)C(=O)N[C@@H](CCCCN)C(=O)N[C@@H](CCCCN)C(=O)N[C@@H](Cc1ccccc1)C(=O)N[C@@H](C)C(=O)N[C@@H](CO)C(N)=O [5a] (Ac-EF[R5]GE[S5]ANE[R8]ATKFLE[S5]IKKKFAS-NH2; staple 3-6, 10-17) | >100 | 18.4 ± 9.3 | no toxicity | Animals with focal lesions of the pulmonary parenchyma with infiltration by neutrophils (histology) (BALB/c mice; BALB/c mice n = 5, i.n. 50 μl at 215 μM at days 0 and 2, day 4, HES staining): 3 of the 5; Macroscopic lung examination (BALB/c mice; BALB/c mice n = 5, i.n. 50 μl at 215 μM at days 0 and 2, lungs collected at day 4): no macroscopic sign of toxicity; Body weight monitoring, signs of toxicity (BALB/c mice; BALB/c mice n = 5, i.n. 50 μl at 215 μM in PBS at days 0 and 2, days 0 to 4): did not reveal any signs of toxicity; Reduction in the level of RSV replication in the noses versus untreated mice (rHRSV-Luc; [3]): 2 fold; Whole luminescence signal versus untreated infected mice (rHRSV-Luc; [3]): no significant difference; Intensity of interstitial pneumonia (lung histology) (rHRSV-Luc; 4 dpi, HES staining, versus RSV-infected PBS mice): decreased; Animals with vascular and bronchial lesions (lung histology) (rHRSV-Luc; 4 dpi, HES staining, all 5 untreated infected animals showed lesions): 2 out of 5; Amount of bioluminescence versus untreated control group (rHRSV-Luc; [4]): significant reduction; Bioluminescence in the lungs versus untreated RSV-infected mice (rHRSV-Luc; [4]): significantly reduced; Body weight of RSV-infected treated animals (rHRSV-Luc; daily monitoring, i.n. treatment at day 0 and 2 dpi, n = 5): statistically nonsignificant loss of weight |
| CC[C@H](C)[C@H](NC(=O)[C@]1(C)CCCC=CCCCCCC[C@@](C)(NC(=O)[C@H](CCC(=O)O)NC(=O)[C@H](CC(N)=O)NC(=O)[C@H](C)NC(=O)[C@]2(C)CCCC=CCCC[C@@](C)(NC(=O)[C@H](Cc3ccccc3)NC(=O)[C@H](CCC(=O)O)NC(C)=O)C(=O)NCC(=O)N[C@@H](CCC(=O)O)C(=O)N2)C(=O)N[C@@H](C)C(=O)N[C@@H]([C@@H](C)O)C(=O)N[C@@H](CCCCN)C(=O)N[C@@H](Cc2ccccc2)C(=O)N[C@@H](CC(C)C)C(=O)N[C@@H](C)C(=O)N1)C(=O)N[C@@H](CCCCN)C(=O)NCC(=O)N[C@@H](CCCCN)C(=O)N[C@@H](Cc1ccccc1)C(=O)N[C@@H](C)C(=O)N[C@@H](CO)C(N)=O [5b] (Ac-EF[R5]GE[S5]ANE[R8]ATKFLA[S5]IKGKFAS-NH2; staple 3-6, 10-17) | >100 | 16.9 ± 5.1 | some toxicity |  |
| CC[C@H](C)[C@H](NC(=O)[C@]1(C)CCCC=CCCCCCC[C@@](C)(NC(=O)[C@H](CC(N)=O)NC(=O)[C@H](CC(N)=O)NC(=O)[C@H](C)NC(=O)[C@]2(C)CCCC=CCCC[C@@](C)(NC(=O)[C@H](Cc3ccccc3)NC(=O)[C@H](CCC(=O)O)NC(C)=O)C(=O)NCC(=O)N[C@@H](CCC(=O)O)C(=O)N2)C(=O)N[C@@H](C)C(=O)N[C@@H]([C@@H](C)O)C(=O)N[C@@H](CCC(=O)O)C(=O)N[C@@H](Cc2ccccc2)C(=O)N[C@@H](CC(C)C)C(=O)N[C@@H](CCCCN)C(=O)N1)C(=O)N[C@@H](CCCCN)C(=O)NCC(=O)N[C@@H](CCCCN)C(=O)N[C@@H](Cc1ccccc1)C(=O)N[C@@H](C)C(=O)N[C@@H](CO)C(N)=O [5c] (Ac-EF[R5]GE[S5]ANN[R8]ATEFLK[S5]IKGKFAS-NH2; staple 3-6, 10-17) | 79.7 | 18.5 ± 10.6 | no toxicity |  |
| CC[C@H](C)[C@H](NC(=O)[C@]1(C)CCCC=CCCCCCC[C@@](C)(NC(=O)[C@H](CCC(=O)O)NC(=O)[C@H](CC(N)=O)NC(=O)[C@H](C)NC(=O)[C@]2(C)CCCC=CCCC[C@@](C)(NC(=O)[C@H](Cc3ccccc3)NC(=O)[C@H](CCC(=O)O)NC(C)=O)C(=O)NCC(=O)N[C@@H](CCCCN)C(=O)N2)C(=O)N[C@@H](C)C(=O)N[C@@H]([C@@H](C)O)C(=O)N[C@@H](CCCCN)C(=O)N[C@@H](Cc2ccccc2)C(=O)N[C@@H](CC(C)C)C(=O)N[C@@H](CCC(=O)O)C(=O)N1)C(=O)N[C@@H](CCCCN)C(=O)NCC(=O)N[C@@H](CCCCN)C(=O)N[C@@H](Cc1ccccc1)C(=O)N[C@@H](C)C(=O)N[C@@H](CO)C(N)=O [5d] (Ac-EF[R5]GK[S5]ANE[R8]ATKFLE[S5]IKGKFAS-NH2; staple 3-6, 10-17) | 75.7 | 6 ± 4.2 | some toxicity | Cell mortality of minigenome-transfected BSRT7/5 cells (BSRT7/5 cells): 40% |
| palivizumab: monoclonal antibody administered monthly as an injectable for RSV prophylaxis |  |  |  | Efficacy of prophylactic treatment (RSV): approximately 50% |
